In patent US11419854B2, “Medicament containing pemafibrate” (KOWA COMPANY, LTD., priority 2017, dated 2022):

How the values were obtained:
[1] = literature statement; cited from earlier work
[2] = Pharmacokinetic study of pemafibrate in liver cirrhosis patients (plasma unchanged pemafibrate, LC-MS-MS); format: in vivo, human; conditions: for AUC0-t, ratio of geometric mean to persons with normal liver function / Cmax, ratio of geometric mean to persons with normal liver function: single oral dose 0.2 mg, fasting
Protocol: To investigate the effect of liver cirrhosis on the pharmacokinetics of pemafibrate, a clinical study was conducted on mild liver cirrhosis patients, moderate liver cirrhosis patients, fatty liver patients, and persons with normal liver function.
Subjects were classified into four groups according to the criteria in Table 2. As a result, the subjects included 8 mild liver cirrhosis patients, 6 moderate liver cirrhosis, patients, 10 fatty liver patients, and 8 persons with normal liver function.
2. Test Method (1) Administration and Measurement Subjects received a single oral dose of 0.2 mg of study drug (pemafibrate) in the fasting state (fasting for at least 10 hours).
Blood samples were collected at a total of 16 time points immediately before administration of the investigational product and 0.25, 0.5, 1, 1.5, 2, 3, 4, 6, 8, 10, 12, 16, 24, 36, and 48 hours after administration of the investigational product, and plasma concentrations of unchanged pemafibrate were measured by high performance liquid chromatography/tandem mass spectrometry (High-Performance Liquid Chromatography/Tandem Mass Spectrometry: LC-MS-MS method).
To investigate the pharmacokinetics, the pharmacokinetic parameters (maximum concentration (Cmax) and area under the concentration-time curves […] (AUC0-t) of unchanged pemafibrate were evaluated by calculating the ratio of the geometric mean values of the groups of patients with hepatic dysfunction to those with normal hepatic function and their 90% confidence intervals.

[3] = fatty liver patients (n = 10) vs normal liver function (n = 8), plasma unchanged pemafibrate
[4] = mild liver cirrhosis Child-Pugh class A (n = 8) vs normal liver function (n = 8)
[5] = moderate liver cirrhosis Child-Pugh class B (n = 6) vs normal liver function (n = 8)

Structure (SMILES)	route of excretion [1]	geometric mean values of Cmax and AUC0-t compared with the liver function normal group ([2]; fatty liver patient group)	AUC0-t, ratio of geometric mean to persons with normal liver function [2, 3]	Cmax, ratio of geometric mean to persons with normal liver function [2, 3]	AUC0-t, ratio of geometric mean to persons with normal liver function [2, 4]	Cmax, ratio of geometric mean to persons with normal liver function [2, 4]	ratio of geometric mean values of Cmax and AUC0-t, liver cirrhosis patients to persons with normal liver function ([2]; mild liver cirrhosis patients (Child-Pugh Class A))	AUC0-t, ratio of geometric mean to persons with normal liver function [2, 5]	Cmax, ratio of geometric mean to persons with normal liver function [2, 5]	ratio of geometric mean values of Cmax and AUC0-t, liver cirrhosis patients to persons with normal liver function ([2]; moderate liver cirrhosis patients (Child-Pugh Class B))
CC[C@@H](Oc1cccc(CN(CCCOc2ccc(OC)cc2)c2nc3ccccc3o2)c1)C(=O)O [pemafibrate, (2R)-2-[3-({1,3-benzoxazol-2-yl[3-(4-methoxyphenoxy)propyl]amino}methyl)phenoxy]butanoic acid]	rarely excreted via kidneys	about 1.2 times	1.194	1.198	2.076	2.329	approximately 2 fold	4.191	3.882	approximately 4 fold
CC(C)(Oc1ccc(CCNC(=O)c2ccc(Cl)cc2)cc1)C(=O)O [bezafibrate]	excreted in the urine primarily via kidneys									
